{"source": "ChEMBL document CHEMBL4507319", "about": "(2021)", "key": {"[1]": {"biological_target": "Calcium/calmodulin-dependent protein kinase type II subunit delta (Homo sapiens) (UniProt Q13557)", "sequence (Q13557 whole entry)": "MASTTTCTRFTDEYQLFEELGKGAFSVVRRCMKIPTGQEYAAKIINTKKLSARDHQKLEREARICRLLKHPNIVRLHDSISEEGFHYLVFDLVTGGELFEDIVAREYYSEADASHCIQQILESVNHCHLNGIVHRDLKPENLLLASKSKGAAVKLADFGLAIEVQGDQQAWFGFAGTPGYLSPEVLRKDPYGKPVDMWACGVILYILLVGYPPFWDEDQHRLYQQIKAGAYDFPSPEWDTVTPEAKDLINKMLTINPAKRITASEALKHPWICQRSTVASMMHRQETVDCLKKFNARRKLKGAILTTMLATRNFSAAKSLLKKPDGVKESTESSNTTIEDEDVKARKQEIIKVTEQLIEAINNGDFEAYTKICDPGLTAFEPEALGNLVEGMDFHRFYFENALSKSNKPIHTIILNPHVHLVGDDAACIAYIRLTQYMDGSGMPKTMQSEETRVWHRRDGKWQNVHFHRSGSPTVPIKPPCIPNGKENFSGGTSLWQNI", "test": "CaMKIIdelta(h) Eurofins kinase panel", "conditions": "Compound concentration 1.0 uM"}, "[2]": {"biological_target": "Tyrosine-protein kinase CSK (Homo sapiens) (UniProt P41240)", "sequence (P41240 2-450 limits assumed)": "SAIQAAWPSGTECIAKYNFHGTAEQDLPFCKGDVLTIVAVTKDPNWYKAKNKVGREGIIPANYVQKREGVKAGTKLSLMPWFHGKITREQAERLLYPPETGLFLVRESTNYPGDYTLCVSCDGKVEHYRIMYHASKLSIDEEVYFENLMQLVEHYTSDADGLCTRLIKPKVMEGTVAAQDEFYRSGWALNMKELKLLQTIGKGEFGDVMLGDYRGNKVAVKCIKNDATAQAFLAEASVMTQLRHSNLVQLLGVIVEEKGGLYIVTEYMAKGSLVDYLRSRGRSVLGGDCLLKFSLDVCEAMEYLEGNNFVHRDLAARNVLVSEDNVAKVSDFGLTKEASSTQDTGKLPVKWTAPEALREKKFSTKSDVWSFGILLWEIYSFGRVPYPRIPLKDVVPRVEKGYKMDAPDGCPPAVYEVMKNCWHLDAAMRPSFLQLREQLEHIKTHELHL", "test": "CSK(h) Eurofins kinase panel", "conditions": "Compound concentration 1.0 uM"}, "[3]": {"biological_target": "Dual specificity tyrosine-phosphorylation-regulated kinase 1B (Homo sapiens) (UniProt Q9Y463)", "sequence (Q9Y463 whole entry, looked up)": "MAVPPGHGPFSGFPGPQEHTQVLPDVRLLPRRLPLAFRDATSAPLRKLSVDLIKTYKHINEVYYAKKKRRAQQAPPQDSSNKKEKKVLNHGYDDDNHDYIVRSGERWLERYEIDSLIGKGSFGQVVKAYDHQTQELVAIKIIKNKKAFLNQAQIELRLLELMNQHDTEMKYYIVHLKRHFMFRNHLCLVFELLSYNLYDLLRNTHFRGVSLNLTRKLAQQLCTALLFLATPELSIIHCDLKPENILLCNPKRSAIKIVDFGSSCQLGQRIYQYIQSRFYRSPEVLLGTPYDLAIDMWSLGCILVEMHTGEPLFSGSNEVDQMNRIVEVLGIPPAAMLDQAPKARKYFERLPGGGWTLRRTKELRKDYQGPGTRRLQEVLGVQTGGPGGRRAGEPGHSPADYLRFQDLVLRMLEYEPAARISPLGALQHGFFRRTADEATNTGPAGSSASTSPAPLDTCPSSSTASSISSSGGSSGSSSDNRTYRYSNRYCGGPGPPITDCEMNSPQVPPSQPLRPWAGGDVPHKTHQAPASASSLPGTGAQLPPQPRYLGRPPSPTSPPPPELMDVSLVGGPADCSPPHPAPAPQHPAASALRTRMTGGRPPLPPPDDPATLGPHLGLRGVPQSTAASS", "test": "DYRK1B(h) Eurofins kinase panel", "conditions": "Compound concentration 1.0 uM"}, "[4]": {"biological_target": "T1, Ephrin type-A receptor 1 (Homo sapiens) (UniProt P21709)", "T1 sequence (whole entry)": "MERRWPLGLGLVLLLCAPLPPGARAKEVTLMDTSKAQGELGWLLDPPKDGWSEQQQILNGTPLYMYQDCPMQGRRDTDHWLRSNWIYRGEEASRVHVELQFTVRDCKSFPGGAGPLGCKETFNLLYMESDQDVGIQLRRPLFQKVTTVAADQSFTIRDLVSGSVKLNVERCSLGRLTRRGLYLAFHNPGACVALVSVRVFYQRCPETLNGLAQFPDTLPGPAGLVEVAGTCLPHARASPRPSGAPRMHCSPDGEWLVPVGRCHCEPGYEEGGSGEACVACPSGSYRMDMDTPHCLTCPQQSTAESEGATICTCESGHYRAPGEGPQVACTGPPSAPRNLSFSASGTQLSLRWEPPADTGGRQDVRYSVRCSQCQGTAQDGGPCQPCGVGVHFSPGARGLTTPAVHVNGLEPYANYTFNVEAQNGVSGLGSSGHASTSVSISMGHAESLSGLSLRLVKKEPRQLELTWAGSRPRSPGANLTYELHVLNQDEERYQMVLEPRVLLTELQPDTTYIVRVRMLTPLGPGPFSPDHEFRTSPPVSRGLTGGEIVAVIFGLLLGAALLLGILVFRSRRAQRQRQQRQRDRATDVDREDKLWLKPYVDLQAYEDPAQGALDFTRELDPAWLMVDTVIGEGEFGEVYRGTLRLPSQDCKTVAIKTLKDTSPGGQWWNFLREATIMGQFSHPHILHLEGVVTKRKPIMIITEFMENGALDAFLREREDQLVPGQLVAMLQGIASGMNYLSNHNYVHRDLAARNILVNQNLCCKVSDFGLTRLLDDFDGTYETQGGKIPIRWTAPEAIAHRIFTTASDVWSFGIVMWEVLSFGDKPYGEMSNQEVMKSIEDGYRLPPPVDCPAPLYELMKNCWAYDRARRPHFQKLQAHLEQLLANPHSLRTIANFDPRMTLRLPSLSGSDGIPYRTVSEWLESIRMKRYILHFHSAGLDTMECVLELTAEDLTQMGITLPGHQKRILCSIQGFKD", "test": "EphA1(h) Eurofins kinase panel", "conditions": "Compound concentration 1.0 uM"}, "[5]": {"biological_target": "Focal adhesion kinase 1 (Homo sapiens) (UniProt Q05397)", "test": "FAK(h) Eurofins kinase panel", "conditions": "Compound concentration 1.0 uM"}, "[6]": {"biological_target": "T2, Serine/threonine-protein kinase MAK (Homo sapiens) (UniProt P20794)", "T2 sequence (whole entry)": "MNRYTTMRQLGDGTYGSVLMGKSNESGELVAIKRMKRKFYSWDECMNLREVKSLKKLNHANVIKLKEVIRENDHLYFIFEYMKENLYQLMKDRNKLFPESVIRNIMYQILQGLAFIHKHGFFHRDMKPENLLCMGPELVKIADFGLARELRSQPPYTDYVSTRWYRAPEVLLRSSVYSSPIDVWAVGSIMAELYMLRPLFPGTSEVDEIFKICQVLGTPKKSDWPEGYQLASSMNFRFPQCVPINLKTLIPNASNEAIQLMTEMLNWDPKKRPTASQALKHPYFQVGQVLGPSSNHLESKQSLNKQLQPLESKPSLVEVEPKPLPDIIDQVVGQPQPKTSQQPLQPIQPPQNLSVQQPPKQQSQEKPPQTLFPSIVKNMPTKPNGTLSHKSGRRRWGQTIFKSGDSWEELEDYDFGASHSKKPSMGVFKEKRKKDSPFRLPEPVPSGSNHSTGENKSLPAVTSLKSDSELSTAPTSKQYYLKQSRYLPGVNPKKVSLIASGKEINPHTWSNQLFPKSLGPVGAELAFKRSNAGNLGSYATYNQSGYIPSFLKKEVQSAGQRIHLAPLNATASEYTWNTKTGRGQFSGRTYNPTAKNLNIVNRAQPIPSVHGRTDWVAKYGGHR", "test": "MAK(h) Eurofins kinase panel", "conditions": "Compound concentration 1.0 uM"}, "[7]": {"biological_target": "Serine/threonine-protein kinase MRCK alpha (Homo sapiens) (UniProt Q5VT25)", "test": "MRCKalpha(h) Eurofins kinase panel", "conditions": "Compound concentration 1.0 uM"}, "[8]": {"biological_target": "Interferon-induced, double-stranded RNA-activated protein kinase (Homo sapiens) (UniProt P19525)", "test": "PKR(h) Eurofins kinase panel", "conditions": "Compound concentration 1.0 uM"}, "[9]": {"biological_target": "Tyrosine-protein kinase FRK (Homo sapiens) (UniProt P42685)", "sequence (P42685 whole entry)": "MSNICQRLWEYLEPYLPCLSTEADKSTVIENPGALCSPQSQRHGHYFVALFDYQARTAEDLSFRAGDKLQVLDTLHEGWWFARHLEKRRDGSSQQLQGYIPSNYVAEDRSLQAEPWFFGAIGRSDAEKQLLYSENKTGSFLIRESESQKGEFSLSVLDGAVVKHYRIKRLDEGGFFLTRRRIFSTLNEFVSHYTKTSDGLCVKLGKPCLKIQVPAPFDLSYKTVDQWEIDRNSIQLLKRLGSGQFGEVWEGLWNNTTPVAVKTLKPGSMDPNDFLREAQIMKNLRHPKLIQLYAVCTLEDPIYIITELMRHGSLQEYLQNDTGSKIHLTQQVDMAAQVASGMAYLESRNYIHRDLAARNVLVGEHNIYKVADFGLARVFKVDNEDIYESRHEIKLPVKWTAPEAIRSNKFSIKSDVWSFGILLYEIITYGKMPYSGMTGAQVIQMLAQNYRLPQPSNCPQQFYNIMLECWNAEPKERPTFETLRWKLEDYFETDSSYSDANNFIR", "test": "PTK5(h) Eurofins kinase panel", "conditions": "Compound concentration 1.0 uM"}, "[10]": {"biological_target": "T3, Serine/threonine-protein kinase TAO3 (Homo sapiens) (UniProt Q9H2K8)", "T3 sequence (whole entry)": "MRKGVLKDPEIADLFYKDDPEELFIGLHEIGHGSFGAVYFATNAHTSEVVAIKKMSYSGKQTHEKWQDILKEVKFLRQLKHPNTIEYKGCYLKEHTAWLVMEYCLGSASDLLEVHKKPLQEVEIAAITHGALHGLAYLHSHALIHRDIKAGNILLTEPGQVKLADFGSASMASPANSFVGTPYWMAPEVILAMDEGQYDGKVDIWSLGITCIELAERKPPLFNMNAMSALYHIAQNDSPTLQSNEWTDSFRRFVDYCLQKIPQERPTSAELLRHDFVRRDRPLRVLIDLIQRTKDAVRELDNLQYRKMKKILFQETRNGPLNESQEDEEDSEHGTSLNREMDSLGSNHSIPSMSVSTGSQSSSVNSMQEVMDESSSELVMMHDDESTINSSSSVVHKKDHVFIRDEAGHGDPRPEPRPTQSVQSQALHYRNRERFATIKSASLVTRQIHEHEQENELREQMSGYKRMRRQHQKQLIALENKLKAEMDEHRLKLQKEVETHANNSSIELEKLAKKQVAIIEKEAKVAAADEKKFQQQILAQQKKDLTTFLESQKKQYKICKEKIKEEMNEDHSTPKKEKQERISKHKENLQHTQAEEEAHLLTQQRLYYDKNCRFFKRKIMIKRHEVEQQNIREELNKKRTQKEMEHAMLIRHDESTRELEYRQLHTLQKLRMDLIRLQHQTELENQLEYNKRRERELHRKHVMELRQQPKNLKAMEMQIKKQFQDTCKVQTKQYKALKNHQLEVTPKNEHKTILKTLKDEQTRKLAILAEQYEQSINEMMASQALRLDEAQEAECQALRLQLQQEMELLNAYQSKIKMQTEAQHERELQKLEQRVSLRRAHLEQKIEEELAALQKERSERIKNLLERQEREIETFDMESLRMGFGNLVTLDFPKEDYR", "test": "TAO3(h) Eurofins kinase panel", "conditions": "Compound concentration 1.0 uM"}, "[11]": {"biological_target": "Serine/threonine-protein kinase WNK2 (Homo sapiens) (UniProt Q9Y3S1)", "sequence (Q9Y3S1 whole entry)": "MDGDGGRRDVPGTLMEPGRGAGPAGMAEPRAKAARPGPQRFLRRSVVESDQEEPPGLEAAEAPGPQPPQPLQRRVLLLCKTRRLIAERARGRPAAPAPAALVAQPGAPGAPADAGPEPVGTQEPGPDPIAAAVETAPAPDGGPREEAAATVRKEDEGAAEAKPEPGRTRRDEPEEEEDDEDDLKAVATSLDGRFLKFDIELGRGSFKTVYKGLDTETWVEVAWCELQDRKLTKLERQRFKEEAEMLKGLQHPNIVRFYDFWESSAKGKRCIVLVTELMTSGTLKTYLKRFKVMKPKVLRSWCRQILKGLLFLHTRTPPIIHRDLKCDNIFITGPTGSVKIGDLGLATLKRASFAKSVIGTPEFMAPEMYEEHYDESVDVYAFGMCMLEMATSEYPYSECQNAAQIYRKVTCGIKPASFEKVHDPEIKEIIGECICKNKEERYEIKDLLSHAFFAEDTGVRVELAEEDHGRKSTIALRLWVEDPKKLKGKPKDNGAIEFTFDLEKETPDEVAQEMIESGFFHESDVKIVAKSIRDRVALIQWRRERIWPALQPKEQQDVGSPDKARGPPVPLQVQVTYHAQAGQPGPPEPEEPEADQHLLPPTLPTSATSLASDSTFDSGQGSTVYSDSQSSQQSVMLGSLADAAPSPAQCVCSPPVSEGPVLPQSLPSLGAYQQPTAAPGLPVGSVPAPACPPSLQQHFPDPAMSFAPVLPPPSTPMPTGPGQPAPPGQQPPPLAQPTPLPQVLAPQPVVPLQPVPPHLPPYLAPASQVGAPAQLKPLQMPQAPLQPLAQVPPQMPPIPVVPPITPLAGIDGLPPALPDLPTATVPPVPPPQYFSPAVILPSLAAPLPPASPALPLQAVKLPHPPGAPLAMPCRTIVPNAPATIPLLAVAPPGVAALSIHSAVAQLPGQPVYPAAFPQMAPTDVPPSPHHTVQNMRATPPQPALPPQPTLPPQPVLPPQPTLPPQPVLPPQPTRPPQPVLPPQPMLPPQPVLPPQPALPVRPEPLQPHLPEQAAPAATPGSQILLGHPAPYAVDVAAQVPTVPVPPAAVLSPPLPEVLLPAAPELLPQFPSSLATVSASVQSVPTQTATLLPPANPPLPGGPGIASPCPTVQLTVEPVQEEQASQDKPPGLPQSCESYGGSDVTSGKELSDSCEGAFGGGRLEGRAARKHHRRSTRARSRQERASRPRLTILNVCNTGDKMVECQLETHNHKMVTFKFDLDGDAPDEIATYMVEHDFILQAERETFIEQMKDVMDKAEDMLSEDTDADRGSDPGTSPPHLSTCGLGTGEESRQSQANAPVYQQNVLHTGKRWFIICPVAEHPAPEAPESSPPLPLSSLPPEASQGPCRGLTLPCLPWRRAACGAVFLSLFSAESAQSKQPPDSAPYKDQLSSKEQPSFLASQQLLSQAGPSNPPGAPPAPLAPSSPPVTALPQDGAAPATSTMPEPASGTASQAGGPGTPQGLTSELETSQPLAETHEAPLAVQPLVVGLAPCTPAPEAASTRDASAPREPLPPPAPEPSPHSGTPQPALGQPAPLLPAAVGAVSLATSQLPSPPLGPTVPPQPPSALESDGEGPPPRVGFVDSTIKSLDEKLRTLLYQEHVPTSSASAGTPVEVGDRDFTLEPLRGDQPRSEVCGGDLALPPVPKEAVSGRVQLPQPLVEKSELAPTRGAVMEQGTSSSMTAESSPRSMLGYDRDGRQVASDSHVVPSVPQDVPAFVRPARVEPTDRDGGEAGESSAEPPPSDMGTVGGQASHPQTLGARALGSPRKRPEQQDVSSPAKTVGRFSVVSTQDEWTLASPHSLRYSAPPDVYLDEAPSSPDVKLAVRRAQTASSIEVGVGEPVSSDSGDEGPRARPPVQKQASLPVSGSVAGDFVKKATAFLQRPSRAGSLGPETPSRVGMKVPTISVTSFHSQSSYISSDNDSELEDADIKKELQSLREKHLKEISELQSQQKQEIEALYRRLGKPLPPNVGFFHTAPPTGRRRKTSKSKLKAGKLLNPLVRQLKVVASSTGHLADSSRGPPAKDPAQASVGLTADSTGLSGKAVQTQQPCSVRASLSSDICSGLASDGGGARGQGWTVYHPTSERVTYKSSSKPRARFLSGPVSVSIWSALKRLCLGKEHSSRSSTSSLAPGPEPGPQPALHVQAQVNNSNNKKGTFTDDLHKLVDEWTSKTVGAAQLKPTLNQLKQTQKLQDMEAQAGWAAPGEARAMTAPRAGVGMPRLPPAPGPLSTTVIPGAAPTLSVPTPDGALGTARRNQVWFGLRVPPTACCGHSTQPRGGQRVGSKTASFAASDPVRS", "test": "WNK2(h) Eurofins kinase panel", "conditions": "Compound concentration 1.0 uM"}, "[12]": {"biological_target": "Phosphatidylinositol 5-phosphate 4-kinase type-2 alpha (Homo sapiens) (UniProt P48426)", "sequence (P48426 whole entry)": "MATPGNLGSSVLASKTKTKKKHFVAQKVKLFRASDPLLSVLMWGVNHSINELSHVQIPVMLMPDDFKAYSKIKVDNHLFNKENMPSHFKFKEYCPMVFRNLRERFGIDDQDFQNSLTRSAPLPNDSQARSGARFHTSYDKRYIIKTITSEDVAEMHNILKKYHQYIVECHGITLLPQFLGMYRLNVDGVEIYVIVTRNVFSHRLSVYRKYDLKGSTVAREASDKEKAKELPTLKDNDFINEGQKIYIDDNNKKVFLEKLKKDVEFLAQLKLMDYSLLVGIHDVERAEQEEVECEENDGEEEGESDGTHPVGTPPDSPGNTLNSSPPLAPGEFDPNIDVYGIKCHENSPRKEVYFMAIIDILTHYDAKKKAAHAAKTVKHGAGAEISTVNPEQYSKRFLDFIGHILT", "test": "PIP4K2a(h) Eurofins kinase panel", "conditions": "Compound concentration 1.0 uM"}, "[13]": {"biological_target": "Ribosomal protein S6 kinase alpha-2 (Homo sapiens, UniProt Q15349)"}}, "data": [{"smiles": "CCc1ccccc1C(=O)Nc1n[nH]c2c(C)c(F)c(C3C(C#N)=C(C)N(C)C(C)=C3C#N)cc12", "note": "[BAY-3827]", "values": [{"measurement": "% residual kinase activity", "setting": "[1]", "result": 75, "unit": "%"}, {"measurement": "% residual kinase activity", "setting": "[2]", "result": 90, "unit": "%"}, {"measurement": "% residual kinase activity", "setting": "[3]", "result": 99, "unit": "%"}, {"measurement": "% residual kinase activity", "setting": "[4]", "result": 98, "unit": "%"}, {"measurement": "% residual kinase activity", "setting": "[5]", "result": 84, "unit": "%"}, {"measurement": "% residual kinase activity", "setting": "[6]", "result": 95, "unit": "%"}, {"measurement": "% residual kinase activity", "setting": "[7]", "result": 98, "unit": "%"}, {"measurement": "% residual kinase activity", "setting": "[8]", "result": 96, "unit": "%"}, {"measurement": "% residual kinase activity", "setting": "[9]", "result": 91, "unit": "%"}, {"measurement": "% residual kinase activity", "setting": "[10]", "result": 102, "unit": "%"}, {"measurement": "% residual kinase activity", "setting": "[11]", "result": 87, "unit": "%"}, {"measurement": "% residual kinase activity", "setting": "[12]", "result": 105, "unit": "%"}, {"measurement": "IC50", "setting": "[13]", "result": 24, "unit": "nM"}]}]}
